# Test results as given in US12594317B2 (priority 2020, dated 2026).
# System: HEK293 cell line stably expressing ACE2 receptor infected by COVID-19 pseudovirus
# Type: cell-based, human
# Conditions: positive control group, 10 μL of 100 μM solution per well, 48 h
smiles,measurement,value
CCN(CC)CCCC(C)Nc1ccnc2cc(Cl)ccc12 (stereo not shown) [chloroquine phosphate],RLU/RLUc value (ratio of fluorescence value of test group to average fluorescence intensity of negative control group),0.05±0.01
